In US20250345295A1, “LMK235 COMPOSITIONS AND METHODS” (UNM Rainforest Innovations, priority 2024, published 2025):
“Also recorded” adds a separate entry of the source.

Columns and labels:
[1] = system: C57BL/6 mice with TIC model; assay: von Frey mechanical threshold, TIC trigeminal nerve injury model; format: in vivo, mouse
Text: Mice underwent the TIC nerve injury surgery, a simplified non-ligation variant of the trigeminal CCI-ION model previously described (Lyons et al., Neuroscience 2015 Jun. 4; 295:126-138; Ma et al., MolBrain 2012 Dec. 28; 5:44). Briefly, mice were anesthetized with isoflurane (3-4%) and a piece of chromic gut suture (2 mm length, 6-0) was placed parallel to the infraorbital nerve (ION) adjacent to the maxillary bone infraorbital fissure at a site just under the lower eyelid. Naïve controls underwent anesthesia only. The chronic trigeminal inflammatory compression (TIC) nerve injury model induces measurable changes in evoked reflexive or higher order pain-like and anxiety-like behaviors but are not otherwise detectable.
The HDAC4/5 inhibitor LMK235 (s.c., 5 mg/kg)(N-[[6-(Hydroxyamino)-6-oxohexyl]oxy]-3,5-dimethyl-benzamide) (Cayman Chemical Co., Ann Arbor, MI) was used at previously published dilutions (Bennett G J, Xie Y K. Pain 1988 April; 33:87-107). […] All treatments with the HDACi (5 mg/kg) or vehicle were given daily for seven consecutive days in the neck scruff (s.c.) for comparisons to naïve control mice.
In the first post-treatment study, male C57B1/6 mice were subcutaneously (s.c.) injected daily for seven days beginning in week 3 following the trigeminal nerve insult induced surgically. Withdrawal thresholds were tested weekly with von Frey fiber stimulation on the snout. One TIC mouse behaving erratically on day 1-7 was eliminated from the study.
In the second post-treatment study, C57B1/6 mice were treated daily for 14 days in week 8 and week 9 after the nerve insult. Withdrawal thresholds were determined weekly with von Frey fiber stimulation on the snout until experiment end.
Testing was done by an observer blinded to study group. Von Frey assessment of snout withdrawal threshold was conducted prior to and at least once a week after nerve injury to confirm development of craniofacial neuropathic pain. […]
Mechanical and cold sensitivity was modified for face as previously described (Montera M A, Westlund K N, Bio-protocol2020 April 20; 10(8):e3591-e3591; Lyons et al., Neuroscience 2015 Jun. 4; 295:126-138; Ma et al., Mol Brain 2012 Dec. 28; 5:44; Montera et al., Channels (Austin). 2021 December; 15(1):31-37). Briefly, animals were gently restrained and the mechanical threshold for nocifensive head withdrawal was determined using calibrated von Frey filaments (0.008 g-6.0 g) using the Up-Down method (Chaplan et al., J Neurosci Methods 1994 July; 53(1):55-63; FIG. 2). Cold sensitivity was determined by applying a 10° C. cold coil to the ION's receptive field and measuring the time until an animal withdrew its head (Montera et al., Channels (Austin). 2021 December; 15(1):31-37).

[2] = system: HDAC5 protein; assay: Western blot of TG HDAC5 protein; format: in vivo, mouse; settings: for TG HDAC5 protein levels: LMK235 treatment
Protocol: Mice were euthanized with pentobarbital (FatalPlus, 480 mg/kg) and both ipsilateral and contralateral TG were removed. TG were washed immediately in PBS and stored at −80° C. Protein from TG tissue was extracted following homogenization using a pestle and 500 μL of 1× RIPA buffer (Thermo Fisher Scientific, Inc., Waltham, MA, Cat #89,900). Samples were put on a rocking shaker for two hours and then centrifuged, and the supernatant removed to a new tube. Sample was assayed for total protein (Bradford, Thermo Fisher Scientific, Inc., Waltham, MA). Samples were then prepared for electrophoresis by mixing with 2× sample buffer and boiling for five minutes at 100° C. for denaturation.
Proteins were loaded on a 12% Tris-Glycine polyacrylamide gradient gel (Bio-Rad Laboratories, Inc., Hercules, CA) and transferred to a PVDF membrane (MilliporeSigma, Burlington, MA). Membrane was blocked for an hour with 5% nonfat milk in TBST buffer at room temperature and incubated at 4° C. with anti-HDAC5 antibody overnight (Abcam, Cambridge, UK, #ab55403, #ab2772, #ab170935). The membrane was subsequently washed with TBST and then incubated with anti-rabbit secondary with HRP for one hour at room temperature (Abcam ab6721, diluted 1:1000 in TBST). The washing was repeated and then the blot developed with chemiluminescent substrate (Thermo Fisher Scientific, Inc., Waltham, MA Cat #32,106). The blot was then imaged using a Li-Cor Odyssey FC imaging system. Signal intensity was normalized to actin (Abcam ab8227, 1:2000) or tubulin (Abcam #ab10287), which was used as a loading control. Signal intensity was analyzed using ImageJ for comparisons.

## Cc1cc(C)cc(C(=O)NOCCCCCC(=O)NO)c1 [LMK235, N-[[6-(Hydroxyamino)-6-oxohexyl]oxy]-3,5-dimethyl-benzamide]
[1]; C57BL/6 TIC mice, 5 mg/kg s.c., post-treatment 8 weeks after nerve injury, vs vehicle, 5 mg/kg
  mechanical threshold (von Frey), ipsilateral: significantly reversed; also recorded: significantly increased the mechanical threshold
[1]; TIC mice treated in week 8
  mechanical threshold (von Frey), contralateral side: complete return to naïve baseline
[1]; male C57BL/6 TIC mice, 5 mg/kg s.c. daily for seven days in week 3, vs vehicle, 5 mg/kg
  whisker pad mechanical threshold (von Frey): reversed to naïve baseline; also recorded: returned whisker pad mechanical threshold to naïve baseline
[1]; male C57BL/6 TIC mice, 5 mg/kg s.c. daily in week 3
  time mechanical threshold remained at naïve baseline: 4-6 weeks
[2]; LMK235-treated FRICT-ION mice, males and females
  TG HDAC protein levels vs untreated FRICT-ION mice: significantly lower
[2]; female FRICT-ION mice
  TG HDAC5 protein levels: to naïve levels
[2]; male FRICT-ION mice
  TG HDAC5 protein levels: below naïve levels
